Test results published in ChEMBL document CHEMBL4819021, “Paratrimerins J-Y, Dimeric Coumarins Isolated from the Stems of Paramignya trimera” (J Nat Prod, 2021).
Activity calls are given as the source filed them. No cut-off for these calls is given here.

Tests used:
Format in all cases: functional, cell-based
SK-HEP1 = assay: Cytotoxicity against human SK-HEP1 cells assessed as reduction in cell viability at 40 uM measured after 72 hrs by MTS assay
COLO 205 = assay: Cytotoxicity against human COLO 205 cells assessed as reduction in cell viability at 40 uM measured after 72 hrs by MTS assay
HCT-8 = assay: Cytotoxicity against human HCT-8 cells assessed as reduction in cell viability at 40 uM measured after 72 hrs by MTS assay
HCT-116 = assay: Cytotoxicity against human HCT-116 cells assessed as reduction in cell viability at 40 uM measured after 72 hrs by MTS assay
KM12 = assay: Cytotoxicity against human KM12 cells assessed as reduction in cell viability at 40 uM measured after 72 hrs by MTS assay
RKO = assay: Cytotoxicity against human RKO cells assessed as reduction in cell viability at 40 uM measured after 72 hrs by MTS assay
SW480 = assay: Cytotoxicity against human SW480 cells assessed as reduction in cell viability at 40 uM measured after 72 hrs by MTS assay
SW-620 = assay: Cytotoxicity against human SW-620 cells assessed as reduction in cell viability at 40 uM measured after 72 hrs by MTS assay
BT-549 = assay: Cytotoxicity against human BT-549 cells assessed as reduction in cell viability at 40 uM measured after 72 hrs by MTS assay
HCC38 = assay: Cytotoxicity against human HCC38 cells assessed as reduction in cell viability at 40 uM measured after 72 hrs by MTS assay
HCC70 = assay: Cytotoxicity against human HCC70 cells assessed as reduction in cell viability at 40 uM measured after 72 hrs by MTS assay
HCC1428 = assay: Cytotoxicity against human HCC1428 cells assessed as reduction in cell viability at 40 uM measured after 72 hrs by MTS assay
Hs-578T = assay: Cytotoxicity against human Hs-578T cells assessed as reduction in cell viability at 40 uM measured after 72 hrs by MTS assay
MDA-MB-231 = assay: Cytotoxicity against human MDA-MB-231 cells assessed as reduction in cell viability at 40 uM measured after 72 hrs by MTS assay
MDA-MB-435 = assay: Cytotoxicity against human MDA-MB-435 cells assessed as reduction in cell viability at 40 uM measured after 72 hrs by MTS assay
MDA-MB-468 = assay: Cytotoxicity against human MDA-MB-468 cells assessed as reduction in cell viability at 40 uM measured after 72 hrs by MTS assay
MCF7 = assay: Cytotoxicity against human MCF7 cells assessed as reduction in cell viability at 40 uM measured after 72 hrs by MTS assay
SK-BR-3 = assay: Cytotoxicity against human SK-BR-3 cells assessed as reduction in cell viability at 40 uM measured after 72 hrs by MTS assay
T47D = assay: Cytotoxicity against human T47D cells assessed as reduction in cell viability at 40 uM measured after 72 hrs by MTS assay
Huh-7 = assay: Cytotoxicity against human Huh-7 cells assessed as reduction in cell viability measured after 72 hrs by MTS assay; settings: Huh-7, 72 h
HT-1080 = assay: Cytotoxicity against human HT-1080 cells assessed as reduction in cell viability measured after 72 hrs by MTS assay; settings: HT-1080, 72 h
HT-29 = assay: Cytotoxicity against human HT-29 cells harboring Ras/Raf mutant assessed as reduction in cell viability measured after 72 hrs by MTS assay; settings: HT-29, 72 h

CC1=C[C@H](c2cc3ccc(=O)oc3cc2O[C@@H]2O[C@H](CO)[C@@H](O)[C@H](O)[C@H]2O)[C@@](C)(/C=C/c2cc3ccc(=O)oc3cc2O[C@@H]2O[C@H](COC3OC[C@@H](O)[C@H](O)[C@H]3O)[C@@H](O)[C@H](O)[C@H]2O)CC1 (some centres undefined)
Activity (SK-HEP1): inactive | Activity (COLO 205): inactive | Activity (HCT-8): inactive | Activity (HCT-116): inactive | Activity (KM12): inactive | Activity (RKO): inactive | Activity (SW480): inactive | Activity (SW-620): inactive | Activity (BT-549): inactive | Activity (HCC38): inactive | Activity (HCC70): inactive | Activity (HCC1428): inactive | Activity (Hs-578T): inactive | Activity (MDA-MB-231): inactive | Activity (MDA-MB-435): inactive | Activity (MDA-MB-468): inactive | Activity (MCF7): inactive | Activity (SK-BR-3): inactive | Activity (T47D): inactive

CC1=C[C@H](c2cc3ccc(=O)oc3cc2O[C@@H]2O[C@H](COC3OC[C@@H](O)[C@H](O)[C@H]3O)[C@@H](O)[C@H](O)[C@H]2O)[C@@](C)(/C=C/c2cc3ccc(=O)oc3cc2O[C@@H]2O[C@H](CO)[C@@H](O)[C@H](O)[C@H]2O)CC1 (some centres undefined)
Activity (SK-HEP1): inactive | Activity (COLO 205): inactive | Activity (HCT-8): inactive | Activity (HCT-116): inactive | Activity (KM12): inactive | Activity (RKO): inactive | Activity (SW480): inactive | Activity (SW-620): inactive | Activity (BT-549): inactive | Activity (HCC38): inactive | Activity (HCC70): inactive | Activity (HCC1428): inactive | Activity (Hs-578T): inactive | Activity (MDA-MB-231): inactive | Activity (MDA-MB-435): inactive | Activity (MDA-MB-468): inactive | Activity (MCF7): inactive | Activity (SK-BR-3): inactive | Activity (T47D): inactive

CC(C)=CCC/C(C)=C/Cc1cc(/C=C/C(=O)O[C@@H](Cc2c(OCC=C(C)C)ccc3ccc(=O)oc23)C(C)(C)O)c(O)cc1O
IC50 (Huh-7): 14.9 µM | IC50 (HT-1080): 18.4 µM | IC50 (HT-29): 22.5 µM

CC1=C[C@H](c2cc3ccc(=O)oc3cc2O[C@@H]2O[C@H](CO)[C@@H](O)[C@H](O)[C@H]2O)[C@](C)(/C=C/c2cc3ccc(=O)oc3cc2O[C@@H]2O[C@H](CO[C@@H]3OC[C@](O)(CO)[C@H]3O)[C@@H](O)[C@H](O)[C@H]2O)CC1
Activity (SK-HEP1): inactive | Activity (COLO 205): inactive | Activity (HCT-8): inactive | Activity (HCT-116): inactive | Activity (KM12): inactive | Activity (RKO): inactive | Activity (SW480): inactive | Activity (SW-620): inactive | Activity (BT-549): inactive | Activity (HCC38): inactive | Activity (HCC70): inactive | Activity (HCC1428): inactive | Activity (Hs-578T): inactive | Activity (MDA-MB-231): inactive | Activity (MDA-MB-435): inactive | Activity (MDA-MB-468): inactive | Activity (MCF7): inactive | Activity (SK-BR-3): inactive | Activity (T47D): inactive

CC1=C[C@@H](c2cc3ccc(=O)oc3cc2O[C@@H]2O[C@H](CO[C@@H]3OC[C@](O)(CO)[C@H]3O)[C@@H](O)[C@H](O)[C@H]2O)[C@@](C)(/C=C/c2cc3ccc(=O)oc3cc2O[C@@H]2O[C@H](CO)[C@@H](O)[C@H](O)[C@H]2O)CC1
Activity (SK-HEP1): inactive | Activity (COLO 205): inactive | Activity (HCT-8): inactive | Activity (HCT-116): inactive | Activity (KM12): inactive | Activity (RKO): inactive | Activity (SW480): inactive | Activity (SW-620): inactive | Activity (BT-549): inactive | Activity (HCC38): inactive | Activity (HCC70): inactive | Activity (HCC1428): inactive | Activity (Hs-578T): inactive | Activity (MDA-MB-231): inactive | Activity (MDA-MB-435): inactive | Activity (MDA-MB-468): inactive | Activity (MCF7): inactive | Activity (SK-BR-3): inactive | Activity (T47D): inactive
